Reference: patent US20150352108A1, “AMINO-PYRIMIDINE COMPOUNDS AS INHIBITORS OF TBK1 AND/OR IKK EPSILON” (Alzheimer's Institute of America, priority 2009, published 2015)
Like-named read-outs stand apart in the source and are kept apart here.

Tests used:
IKKε = target: T1, IKKε (Homo sapiens, UniProt Q14164); test: In-vitro IKKε kinase assay ([γ33]ATP filter-plate); assay type: biochemical
T1 construct: His-tag; made in house; host or cells: Sf9 insect cells
T1 sequence (Q14164 1-716): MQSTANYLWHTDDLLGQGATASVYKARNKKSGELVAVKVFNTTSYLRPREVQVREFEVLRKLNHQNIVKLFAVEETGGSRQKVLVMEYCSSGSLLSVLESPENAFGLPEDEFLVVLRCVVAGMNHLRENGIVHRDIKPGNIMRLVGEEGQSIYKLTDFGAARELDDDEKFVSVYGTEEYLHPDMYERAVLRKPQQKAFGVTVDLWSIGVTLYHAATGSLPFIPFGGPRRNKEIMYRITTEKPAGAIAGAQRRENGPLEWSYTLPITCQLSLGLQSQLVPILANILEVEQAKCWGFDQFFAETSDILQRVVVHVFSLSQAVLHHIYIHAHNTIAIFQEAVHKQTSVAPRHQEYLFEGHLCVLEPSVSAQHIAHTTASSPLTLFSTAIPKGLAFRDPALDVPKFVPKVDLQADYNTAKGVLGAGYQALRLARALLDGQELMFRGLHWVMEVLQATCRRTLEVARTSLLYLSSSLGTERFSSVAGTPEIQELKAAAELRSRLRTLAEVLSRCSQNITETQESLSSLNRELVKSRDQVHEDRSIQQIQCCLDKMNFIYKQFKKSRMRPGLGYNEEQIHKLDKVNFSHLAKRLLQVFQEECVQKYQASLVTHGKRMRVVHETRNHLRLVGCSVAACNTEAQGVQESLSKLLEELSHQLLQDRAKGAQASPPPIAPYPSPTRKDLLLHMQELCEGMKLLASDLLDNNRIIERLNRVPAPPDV
Procedure, shortened: (§1)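 Phosphorylation of casein or myelin basic protein was counted by P-81 filter capture after 30-45 min reactions stopped with phosphoric acid, with counts normalized to DMSO after background subtraction. ATP was twice Km: 60 μM for TBK1 and 32 μM for IKKε, plus [γ33]ATP. Sf9-expressed His-tag enzymes were used at normal/sensitized levels of 0.1/0.02 μg/ml (TBK1) and 0.1/0.015 μg/ml (IKKε).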

TBK1 = target: T2, TBK1 (Homo sapiens, UniProt Q9UHD2); test: In-vitro TBK1 kinase assay ([γ33]ATP filter-plate); assay type: biochemical
T2 construct: His-tag; made in house; host or cells: Sf9 insect cells
T2 sequence (Q9UHD2 1-729): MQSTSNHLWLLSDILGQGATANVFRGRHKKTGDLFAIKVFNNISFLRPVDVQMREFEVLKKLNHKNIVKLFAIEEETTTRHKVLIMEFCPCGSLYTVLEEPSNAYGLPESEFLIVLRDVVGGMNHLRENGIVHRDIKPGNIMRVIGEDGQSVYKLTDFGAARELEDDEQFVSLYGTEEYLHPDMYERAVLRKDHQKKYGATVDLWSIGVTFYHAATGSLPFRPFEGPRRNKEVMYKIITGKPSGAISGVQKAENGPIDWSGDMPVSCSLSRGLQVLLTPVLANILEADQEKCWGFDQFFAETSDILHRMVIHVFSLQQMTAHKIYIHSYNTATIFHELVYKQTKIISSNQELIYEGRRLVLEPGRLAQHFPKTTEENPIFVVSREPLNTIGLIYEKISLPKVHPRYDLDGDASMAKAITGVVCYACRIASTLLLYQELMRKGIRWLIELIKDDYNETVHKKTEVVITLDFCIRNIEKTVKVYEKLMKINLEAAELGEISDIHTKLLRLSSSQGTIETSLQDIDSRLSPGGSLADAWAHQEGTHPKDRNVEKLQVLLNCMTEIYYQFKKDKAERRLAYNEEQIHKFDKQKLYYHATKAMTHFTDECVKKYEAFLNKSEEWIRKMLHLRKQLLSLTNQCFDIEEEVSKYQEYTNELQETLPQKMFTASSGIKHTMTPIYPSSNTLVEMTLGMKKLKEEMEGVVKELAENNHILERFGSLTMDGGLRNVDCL
Procedure, shortened: as §1

[1] = tested on: IKKε-mediated phosphorylation of IRF3; test: In-situ phosphorylation of IRF3 (pIRF3 Ser396 ELISA) in HEK293T cells cotransfected with IRF3 and IKKε; assay type: cell-based; conditions: Homo sapiens, HEK-293T
Procedure, shortened: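 Cells for the IRF7 Western blots carried IRF7 and TBK1 plasmids, were seeded at 150,000/well, exposed to compound overnight and probed for pSer477/Ser479 IRF7. The ELISA readout used IRF3 + IKKε-cotransfected HEK293T at 20,000/well with 20 h treatment, quantifying pSer396 IRF3 relative to DMSO, plus a parallel CellTiter-Glo viability check.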

[2] = text bins, read-out: IC50 for inhibition of the kinase activity of IKKε
[3] = text bins, read-out: IC50 for inhibition of the kinase activity of TBK1
[4] = HEK293T cells, 20 hours, text bins, read-out: IC50 for inhibition of the in-situ IKKε-mediated phosphorylation of IRF3
[5] = HEK293T cells in culture, Table 3, read-out: pIRF3 ELISA IC50

Structure (SMILES)	IC50 (IKKε; [2]) [nM]	IC50 (TBK1; [3]) [nM]	IC50 [1, 4] [nM]	IC50 (IKKε; Table 3, read-out: IKKε IC50) [nM]	IC50 (TBK1; Table 3, read-out: TBK1 IC50) [nM]	IC50 [1, 5] [nM]
COc1ccc(Nc2nccc(-c3ccc(OC4CCOCC4)c(C#N)c3)n2)cc1OCCCN1CCOCC1 [compound 529, 5-[2-({4-methoxy-3-[3-(morpholin-4-yl)propoxy]phenyl}amino)pyrimidin-4-yl]-2-(tetrahydro-2H-pyran-4-yloxy)benzonitrile]	< 5	< 10	< 100	–	–	–
N#Cc1cc(-c2ccnc(Nc3cccc(OCCN4CCOCC4)c3)n2)ccc1OC1CCOCC1 [compound 518, 5-[2-({3-[2-(Morpholin-4-yl)ethoxy]phenyl}amino)pyrimidin-4-yl]-2-(tetrahydro-2H-pyran-4-yloxy)benzonitrile]	< 5	< 10	< 100	–	–	–
COCCNCc1ccc(Nc2nccc(-c3ccc(OC4CCOCC4)c(C#N)c3)n2)cc1OC [compound 478, 5-{2-[(3-Methoxy-4-{[(2-methoxyethyl)amino]methyl}phenyl)amino]pyrimidin-4-yl}-2-(tetrahydro-2H-pyran-4-yloxy)benzonitrile]	< 5	< 10	< 100	–	–	–
COc1cc(Nc2nccc(-c3ccc(OC4CCOCC4)c(C#N)c3)n2)cc(OC)c1OC [Example 290, 2-(Tetrahydro-2H-pyran-4-yloxy)-5-{2-[(3,4,5-trimethoxyphenyl)amino]pyrimidin-4-yl}benzonitrile]	< 5	< 10	250 to 500	–	–	–
N#Cc1cc(-c2ccnc(Nc3ccc(CN)cc3)n2)ccc1OC1CCOCC1 [compound 486, 5-(2-{[4-(aminomethyl)phenyl]amino}pyrimidin-4-yl)-2-(tetrahydro-2H-pyran-4-yloxy)benzonitrile]	< 5	< 10	250 to 500	–	–	–
COc1cc(Nc2nccc(-c3ccc(OC4CCN(C(=O)CO)CC4)c(C#N)c3)n2)ccc1N1CCOCC1 [Example 59, 2-{[1-(hydroxyacetyl)piperidin-4-yl]oxy}-5-(2-{[3-methoxy-4-(morpholin-4-yl)phenyl]amino}pyrimidin-4-yl)benzonitrile]	< 5	< 10	< 100	0.2	0.4	16.2
COc1cc(Nc2nccc(-c3ccc(OC4CCOCC4)c(C#N)c3)n2)ccc1S(=O)(=O)N1CCCN(C)CC1 [compound 392, 5-[2-({3-Methoxy-4-[(4-methyl-1,4-diazepan-1-yl)sulfonyl]phenyl}amino)pyrimidin-4-yl]-2-(tetrahydro-2H-pyran-4-yloxy)benzonitrile]	< 5	< 10	< 100	0.2	0.2	12.2
COc1cc(Nc2nccc(-c3ccc(OC4CCOCC4)c(C#N)c3)n2)ccc1S(=O)(=O)N1CCC(N(C)C)C1 (stereo not drawn) [compound 400, 5-{2-[(4-{[3-(dimethylamino)pyrrolidin-1-yl]sulfonyl}-3-methoxyphenyl)amino]pyrimidin-4-yl}-2-(tetrahydro-2H-pyran-4-yloxy)benzonitrile]	< 5	< 10	< 100	–	–	–
COc1cc(Nc2nccc(-c3ccc(OC4CCOCC4)c(C#N)c3)n2)ccc1S(=O)(=O)NC1CCN(C)CC1 [Example 253, 4-({4-[3-cyano-4-(tetrahydro-2H-pyran-4-yloxy)phenyl]pyrimidin-2-yl}amino)-2-methoxy-N-(1-methylpiperidin-4-yl)benzenesulfonamide]	< 5	< 10	250 to 500	–	–	–
COc1ccc(Nc2nccc(-c3ccc(OC4CCOCC4)c(C#N)c3)n2)cc1OCC(N)=O [Example 132, 2-[5-({4-[3-cyano-4-(tetrahydro-2H-pyran-4-yloxy)phenyl]pyrimidin-2-yl}amino)-2-methoxyphenoxy] acetamide]	< 5	< 10	250 to 500	–	–	–
CCN(CC)CCNC(=O)c1ccc(Nc2nccc(-c3ccc(OC4CCOCC4)c(C#N)c3)n2)cc1OC [compound 506, 4-({4-[3-cyano-4-(tetrahydro-2H-pyran-4-yloxy)phenyl]pyrimidin-2-yl}amino)-N-[2-(diethylamino)ethyl]-2-methoxybenzamide]	< 5	< 10	< 100	–	–	–
COc1cc(Nc2nccc(-c3ccc(OC4CCOCC4)c(C#N)c3)n2)ccc1C(=O)NCCC1CCCN1C (stereo not drawn) [compound 307, 4-({4-[3-cyano-4-(tetrahydro-2H-pyran-4-yloxy)phenyl]pyrimidin-2-yl}amino)-2-methoxy-N-[2-(1-methylpyrrolidin-2-yl)ethyl]benzamide]	< 5	< 10	100 to 250	–	–	–
C[C@H](O)C(=O)N1CCC(Oc2ccc(-c3ccnc(Nc4ccc(C(=O)N5CCN(C)CC5)cc4)n3)cc2C#N)CC1 [Example 35, 2-({1-[(2S)-2-hydroxypropanoyl]piperidin-4-yl}oxy)-5-[2-({4-[(4-methylpierazin-1-yl)carbonyl]phenyl}amino)pyrimidin-4-yl]benzonitrile]	< 5	< 10	250 to 500	–	–	–
N#Cc1cc(-c2ccnc(Nc3ccc(CO)cc3)n2)ccc1OC1CCOCC1 [compound 499, 5-(2-{[4-(hydroxymethyl)phenyl]amino}pyrimidin-4-yl)-2-(tetrahydro-2H-pyran-4-yloxy)benzonitrile]	5 to 50	< 10	100 to 250	5.1	0.5	142
CCN(CC)CCOCCOc1cc(Nc2nccc(-c3ccc(OC4CCOCC4)c(C#N)c3)n2)ccc1OC [compound 531, 5-{2-[(3-{2-[2-(diethylamino)ethoxy]ethoxy}-4-methoxyphenyl)amino]pyrimidin-4-yl}-2-(tetrahydro-2H-pyran-4-yloxy)benzonitrile]	< 5	< 10	< 100	–	–	–
Cc1ccc(Nc2nccc(-c3ccc(OC4CCOCC4)c(C#N)c3)n2)cc1OCCN1CCNCC1 [compound 533, 5-[2-({4-Methyl-3-[2-(piperazin-1-yl)ethoxy]phenyl}amino)pyrimidin-4-yl]-2-(tetrahydro-2H-pyran-4-yloxy)benzonitrile]	< 5	< 10	< 100	–	–	–
N#Cc1cc(-c2ccnc(Nc3cccc(OCCCN4CCOCC4)c3)n2)ccc1OC1CCOCC1 [compound 528, 5-[2-({3-[3-(morpholin-4-yl)propoxy]phenyl}amino)pyrimidin-4-yl]-2-(tetrahydro-2H-pyran-4-yloxy)benzonitrile]	5 to 50	< 10	250 to 500	–	–	–
CC1(COc2ccc(-c3ccnc(Nc4ccc(N5CCN(CCO)CC5)cc4)n3)cc2C#N)COC1 [compound 437, 5-[2-({4-[4-(2-Hydroxyethyl)piperazin-1-yl]phenyl}amino)pyrimidin-4-yl]-2-[(3-methyloxetan-3-yl)methoxy] benzonitrile]	< 5	< 10	100 to 250	–	–	–
